Data on four molecules can be found in patent US6323187A, “Therapeutic dinucleotide and derivatives” (priority 1999, dated 2001).

Series [1] concerns the target P2Y4 (Homo sapiens, UniProt P51582). Put plainly: Inositol phosphate assay, P2Y4 receptor. Conditions: IA = no agonist activity at 30 μM. Type of series: cell-based. The procedure: (§1) The pharmaceutical utility of the compounds of this invention is indicated by the inositol phosphate assay for P2Y2 and other P2Y receptor activity. This widely used assay, as described in E. Lazarowski, et al., Brit. J. Pharm. 116, 1619-27 (1995), relies on the measurement of inositol phosphate formation as a measurement of activity of compounds activating receptors linked via G-proteins to phospholipase C.
(§2) The compounds of Formula I was tested for its ability to elicit P2Y1, P2Y2, P2Y4 and P2Y6 receptor activity using the inositol phosphate assay as described by E. Lazarowski, et al., Brit. J. Pharm. 116, 1619-27 (1995).

The target in series [2] is T1, P2Y2 (Homo sapiens, UniProt P41231).
T1 construct: expressed in transfected cells
Put plainly: Inositol phosphate assay, P2Y2 receptor. Type of series: cell-based. The settings on record: IA = no agonist activity at 30 μM. The method, then: as §1, §2

For series [3], the system named is P2Y1. Description: Inositol phosphate assay, P2Y1 receptor. Type of series: cell-based. Conditions: IA = no agonist activity at 30 μM. The procedure:
as §1, §2

The test system of series [4] is P2Y6. Description: Inositol phosphate assay, P2Y6 receptor. It counts as cell-based. Conditions: IA = no agonist activity at 30 μM. The procedure: as §1, §2
The subject of series [5] is human nasal epithelial cells. Put plainly: Chloride secretion in human nasal airway cells (change in ISC). Type of series: cell-based. Conditions: more potent than U2 P4; amiloride 100 μM present; apical addition. The method, then:
Airway epithelial cells were desegregated and isolated from freshly excised human nasal surgical specimens (Yankaskas, et al., Am. Rev. Respir. Dis. 132, 1281-1287 (1985)). Confluent monolayers were cultured on permeable collagen matrix supports in F-12 hormone-supplemented medium (Wu, et. al., Am. Rev. Respir. Dis. 132, 311-320 (1985)). Cells were incubated at 37° C. and grown to confluence. Development of transepithelial resistance was monitored to determine the formation of tight junctions between the cells. After formation of tight junctions, was confirmed, the matrix supports containing the cultures were mounted in modified Using chambers. […]
Polycarbonate Using chambers were milled to fit the plastic cups that supported the permeable collagen matrix on which the cells were grown. Bioelectric properties including ISC, transepithelial potential difference and resistance were monitored. Short-circuit current (ISC) was measured with a digital voltmeter (UNC Electronics, Chapel Hill, N.C.) and plotted on a strip-chart recorder. The open circuit potential was recorded periodically, and conductance was monitored in the voltage clamp mode by the current deflection in response to a 10-mV voltage pulse.
A stable baseline of ISC was recorded and amiloride (100 μM) was added to the solution bathing the apical surface to block sodium absorption. […] The change in ISC was recorded. […]

The nature of series [6]: in vitro. Conditions: human, bronchial epithelial cells, pH 7.2.
Procedure: Epithelial cells were grown as monolayers on an airliquid interface in ALI medium. Assays were conducted on fully differentiated cells in KRB-Ringer solution (pH 7.2) at 37° C. with 0.1 mM nucleotide substrate. Aliquots of airway surface liquid were removed at 5, 10, 15, 20, 40 and 60 minutes. The metabolism was stopped by boiling and filtering the aliquots, and the samples were analyzed by high performance liquid chromatography using the following conditions: C- 18 column with a 55 min gradient of 10-100 mM KH2 PO4 and constant 8 mM tetrabutyl ammonium hydrogen sulfate and 10% methanol).
The test system of series [7] is sputum production. The settings on record: normal healthy volunteers; background section; cited from earlier work.
Series [8] relates to airway epithelial cells. The settings on record: airway epithelial cells in vitro; S. Mason, et al. (1991); cited from earlier work.
The subject of series [9] is Type II alveolar cells. The settings on record: Gobran (1994); cited from earlier work.
The test system of series [10] is human airway epithelial cells. The settings on record: human airway epithelial cells in vitro; D. Drutz, et al. (1996); cited from earlier work.
The subject of series [11] is P2Y2 receptor. Conditions: H. Brown, et al. (1991); cited from earlier work.
In series [12] the test system is goblet cells. The settings on record: in vitro; M. Lethem, et al. (1993); cited from earlier work.
In series [13] the test system is cough clearance. The settings on record: patients with PCD; P. Noone, et al. (1996); cited from earlier work.
For series [14], the system named is lung mucociliary clearance. The settings on record: normal volunteers; K. Olivier, et al. (1996); cited from earlier work.

Chain of P2Y4 (P51582 whole entry, species assumed): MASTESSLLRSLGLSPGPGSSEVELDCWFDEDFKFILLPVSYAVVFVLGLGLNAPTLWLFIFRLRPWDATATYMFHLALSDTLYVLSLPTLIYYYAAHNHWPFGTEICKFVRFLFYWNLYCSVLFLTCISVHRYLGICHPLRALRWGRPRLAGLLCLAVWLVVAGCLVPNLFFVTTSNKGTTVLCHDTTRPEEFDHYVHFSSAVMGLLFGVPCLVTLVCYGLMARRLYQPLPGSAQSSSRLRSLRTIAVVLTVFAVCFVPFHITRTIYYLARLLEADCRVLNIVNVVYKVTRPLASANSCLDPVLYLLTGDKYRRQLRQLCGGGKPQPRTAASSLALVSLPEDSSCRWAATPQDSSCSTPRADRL
T1 sequence (P41231 whole entry): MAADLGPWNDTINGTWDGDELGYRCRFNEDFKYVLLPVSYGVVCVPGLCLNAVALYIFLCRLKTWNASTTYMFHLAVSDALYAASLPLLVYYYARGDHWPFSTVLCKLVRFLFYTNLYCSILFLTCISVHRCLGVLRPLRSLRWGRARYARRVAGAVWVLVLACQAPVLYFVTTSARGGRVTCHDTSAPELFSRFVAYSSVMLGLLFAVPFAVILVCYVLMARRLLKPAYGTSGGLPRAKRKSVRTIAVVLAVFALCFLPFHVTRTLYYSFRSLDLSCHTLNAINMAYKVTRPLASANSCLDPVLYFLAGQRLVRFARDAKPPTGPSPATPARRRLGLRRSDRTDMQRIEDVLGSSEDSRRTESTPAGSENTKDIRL

As for `Nc1ccn([C@@H]2O[C@H](COP(=O)(O)OP(=O)(O)OP(=O)(O)OP(=O)(O)OC[C@H]3O[C@@H](n4ccc(N)nc4=O)[C@H](O)[C@@H]3O)[C@@H](O)[C@H]2O)c(=O)n1` [C2 P4], the concentration for a half-maximal effect (EC50) in series [1] was more than 30000 nM; in series [2], more than 30000 nM; in series [3] it was more than 30 µM; in [4], more than 30 µM.
As to `Nc1ccn([C@@H]2O[C@H](COP(=O)(O)OP(=O)(O)OP(=O)(O)OP(=O)(O)OC[C@H]3O[C@@H](n4ccc(=O)[nH]c4=O)[C@H](O)[C@@H]3O)[C@@H](O)[C@H]2O)c(=O)n1` [CP4 U, P^1-(cytidine 5'-)-P^4-(uridine 5'-)-tetraphosphate], in series [5], the “potency relative to U2 P4 in the chloride secretion assay” value is “approximately ten-fold”. Also, the EC50 is 650 nM in [1], 450 nM in [2], more than 30 µM in series [3] and 3.5 µM in [4].
In turn, `O=c1ccn([C@@H]2O[C@H](COP(=O)(O)OP(=O)(O)OP(=O)(O)OP(=O)(O)OC[C@H]3O[C@@H](n4ccc(=O)[nH]c4=O)[C@H](O)[C@@H]3O)[C@@H](O)[C@H]2O)c(=O)[nH]1` [U2 P4, P^1,P^4 -Di(uridine 5'-)tetraphosphate] came in with a metabolised at 1 h, 100 µM in series [6] of 40%. Besides, in series [7], the sputum production entry is listed as “increase sputum production”.
Consider `O=c1ccn([C@@H]2O[C@H](COP(=O)(O)OP(=O)(O)OP(=O)(O)O)[C@@H](O)[C@H]2O)c(=O)[nH]1` [UTP, uridine 5'-triphosphate], for which, in series [6], the metabolised at 1 h, 100 µM worked out at 100%. Moreover, the “Cl^- secretion” value in [8] is on record as “increase Cl^- secretion”. Also, the “release of surfactant from Type II alveolar cells” value in [9] is reported as “release of surfactant”. The cilia beat frequency entry in series [10] is reported as “increase cilia beat frequency”. Moreover, the “intracellular Ca^++” value in series [11] is on record as “increase intracellular Ca^++”. Moreover, the “mucin secretion by goblet cells” value in [12] was “increase both the rate and total amount of mucin secretion”. The cough clearance result in [13] is given as “significantly enhances cough clearance”. In series [14], the lung mucociliary clearance entry is “improvement in lung mucociliary clearance” and the side-effects entry was “without any significant side-effects”.
